Source: paper PMC11022890 (Drug Metabolism and Disposition, 2021)

Experiments:
[1] = target: T1, UGT1A3 (Homo sapiens, UniProt P35503); assay type: in vitro ADME; conditions: rUGT1A3 microsomes; 10 or 100 µM
T1 sequence (P35503 29-534): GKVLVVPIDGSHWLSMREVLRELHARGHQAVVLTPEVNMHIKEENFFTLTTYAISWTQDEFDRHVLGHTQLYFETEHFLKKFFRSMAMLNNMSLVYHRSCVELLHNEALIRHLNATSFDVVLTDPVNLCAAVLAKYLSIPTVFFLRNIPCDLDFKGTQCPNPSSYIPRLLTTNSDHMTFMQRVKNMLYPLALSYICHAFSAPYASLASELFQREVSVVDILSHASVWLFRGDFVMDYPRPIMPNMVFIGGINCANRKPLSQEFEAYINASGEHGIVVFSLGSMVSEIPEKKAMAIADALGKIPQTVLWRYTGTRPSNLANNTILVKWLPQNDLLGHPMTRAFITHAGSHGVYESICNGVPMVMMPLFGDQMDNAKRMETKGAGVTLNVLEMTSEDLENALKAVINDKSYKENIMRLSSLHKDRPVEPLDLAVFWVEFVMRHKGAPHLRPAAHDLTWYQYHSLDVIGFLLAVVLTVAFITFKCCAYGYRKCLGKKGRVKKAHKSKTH

[2] = 400 mg oral dose; ref Manini et al., 2015; cited from earlier work
[3] = target: T2, UGT1A9 in human kidney microsomes (Homo sapiens, UniProt O60656); test: Inhibition of propofol glucuronidation; conditions: HKM
T2 sequence (O60656 26-530): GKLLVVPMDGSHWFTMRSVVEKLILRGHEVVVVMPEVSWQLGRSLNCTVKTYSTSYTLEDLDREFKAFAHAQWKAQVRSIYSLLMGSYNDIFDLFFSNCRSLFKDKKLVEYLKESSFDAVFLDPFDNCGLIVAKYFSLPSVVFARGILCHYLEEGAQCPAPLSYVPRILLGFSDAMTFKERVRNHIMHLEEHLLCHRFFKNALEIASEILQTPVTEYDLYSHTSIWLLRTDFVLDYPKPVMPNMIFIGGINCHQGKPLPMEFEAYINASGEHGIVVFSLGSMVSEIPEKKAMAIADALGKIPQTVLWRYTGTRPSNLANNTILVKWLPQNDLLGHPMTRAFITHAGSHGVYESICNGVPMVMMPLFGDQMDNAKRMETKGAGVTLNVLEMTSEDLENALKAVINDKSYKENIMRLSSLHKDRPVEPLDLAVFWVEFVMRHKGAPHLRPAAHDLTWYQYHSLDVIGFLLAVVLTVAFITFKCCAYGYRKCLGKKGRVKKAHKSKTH

[4] = target: T3, UGT1A6 in human kidney microsomes (Homo sapiens, UniProt P19224); test: Inhibition of serotonin glucuronidation; conditions: HKM
T3 sequence (P19224 27-532): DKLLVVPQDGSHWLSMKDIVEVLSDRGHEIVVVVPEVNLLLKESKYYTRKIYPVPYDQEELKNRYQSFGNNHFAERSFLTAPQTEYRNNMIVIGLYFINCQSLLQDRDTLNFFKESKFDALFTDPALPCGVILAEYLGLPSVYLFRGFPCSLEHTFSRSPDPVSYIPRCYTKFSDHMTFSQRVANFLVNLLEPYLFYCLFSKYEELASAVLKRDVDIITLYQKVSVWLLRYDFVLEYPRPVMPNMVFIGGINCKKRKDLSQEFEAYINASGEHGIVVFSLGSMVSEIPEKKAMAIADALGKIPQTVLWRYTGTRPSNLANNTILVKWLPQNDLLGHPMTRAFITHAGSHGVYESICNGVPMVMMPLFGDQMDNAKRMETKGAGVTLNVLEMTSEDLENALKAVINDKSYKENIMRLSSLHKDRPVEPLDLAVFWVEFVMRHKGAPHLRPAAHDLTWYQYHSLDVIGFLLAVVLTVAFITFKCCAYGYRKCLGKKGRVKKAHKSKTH

[5] = target: T4, UGT1A6 in human liver microsomes (Homo sapiens, UniProt P19224); test: Inhibition of serotonin glucuronidation; conditions: HLM
T4 sequence (P19224 27-532): T3 sequence (P19224 27-532)

[6] = target: T5, UGT2B10 (Homo sapiens, UniProt P36537); test: Screening: inhibition of nicotine glucuronidation in rUGT2B10 microsomes; assay type: in vitro ADME; conditions: 100 µM
T5 sequence (P36537 24-528): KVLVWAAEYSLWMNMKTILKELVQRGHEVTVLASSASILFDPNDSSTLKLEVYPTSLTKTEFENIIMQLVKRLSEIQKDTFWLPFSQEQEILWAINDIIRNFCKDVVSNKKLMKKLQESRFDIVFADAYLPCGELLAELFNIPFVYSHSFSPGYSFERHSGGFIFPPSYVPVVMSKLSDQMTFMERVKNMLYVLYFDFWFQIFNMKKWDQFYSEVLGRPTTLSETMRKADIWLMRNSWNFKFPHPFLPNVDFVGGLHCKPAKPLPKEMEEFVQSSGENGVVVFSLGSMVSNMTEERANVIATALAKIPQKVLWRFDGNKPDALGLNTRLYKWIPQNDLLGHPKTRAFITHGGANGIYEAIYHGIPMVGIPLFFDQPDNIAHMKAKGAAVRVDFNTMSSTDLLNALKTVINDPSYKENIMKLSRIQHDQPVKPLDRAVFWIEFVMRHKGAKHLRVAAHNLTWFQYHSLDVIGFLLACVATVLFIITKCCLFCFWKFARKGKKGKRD

[7] = Nonspecific binding; assay type: in vitro ADME; conditions: human
[8] = Nonspecific binding; assay type: in vitro ADME; conditions: human, incubation mixture with human liver microsomes
[9] = Nonspecific binding; assay type: in vitro ADME; conditions: human, incubation mixture with human kidney microsomes
[10] = IC50,u (binding-corrected IC50), probe substrate propofol
[11] = IC50, probe substrate serotonin
[12] = IC50,u (binding-corrected IC50), probe substrate serotonin

| Compound | inhibition in screening (in words) [1] | average plasma level [2] [µg/L] | IC50 ([3]; IC50, probe substrate propofol) [µM] | IC50 [3, 10] [µM] | IC50 [4, 11] [µM] | IC50 [4, 12] [µM] | IC50 [5, 11] [µM] | IC50 [5, 12] [µM] | inhibition vs control without cannabinoid [6] [%] | fraction unbound [7] | fraction unbound [8] | fraction unbound [9] |
| --- | --- | --- | --- | --- | --- | --- | --- | --- | --- | --- | --- | --- |
| C=C(C)[C@@H]1CCC(C)=C[C@H]1c1c(O)cc(CCCCC)cc1O [CBD, cannabidiol] | no significant inhibition | 181 | 5.5 ± 0.56 | 0.34 ± 0.035 | 17 ± 3.7 | 1 ± 0.23 | 28 ± 6.5 | 1.4 ± 0.33 |  |  |  |  |
| CCCCCc1cc(O)c2c(c1)OC(C)(C)c1ccc(C)cc1-2 [CBN, cannabinol] | no significant inhibition |  | 7.5 ± 1.7 | 0.9 ± 0.2 |  |  |  |  | 47 | 0.085 ± 0.005 | 0.092 ± 0.006 | 0.12 ± 0.015 |
